From patent US10953027B2, “Active agents and methods of their use for the treatment of metabolic disorders and nonalcoholic fatty liver disease” (Flagship Pioneering Innovations V, Inc., priority 2018, dated 2021)

Key:
[1] = Assay 2. Stability in Simulated Intestinal Fluid (SIF); format: in vitro ADME; details: 1 μM, 37° C., SIF pH 6.7 with pancreatin
Procedure, shortened: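 Acylated compounds at 1 μM (from 1 mM DMSO stock) in fresh SIF: FaSSIF with pancreatin in pH 6.7 phosphate buffer, agitated at 37 °C. Aliquots from T0 onward quenched with 1 volume acetonitrile; LC/MS gives degradation rates.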

[2] = Assay 3. Fecal Incubation Stability; format: in vitro ADME; details: 1 or 10 μM, human fecal slurry, anaerobic
Procedure: Assay 3. Fecal Incubation Stability. This assay was used to assess the stability of an acylated active agent in a large intestine. All experiments were performed in an anaerobic chamber containing 90% nitrogen, 5% hydrogen and 5% carbon dioxide. Human fecal matter in a slurry (15% WV) is added to 96 well plates containing YCFA media or other suitable media (1.6 mL). Compounds were added to each individual well to reach a final analyte concentration of 1 or 10 μM, and the material was mixed by pipetting. At set time points a sample was removed, quenched with acetonitrile, and analyzed by LC/MS.

CCCC(=O)OC[C@H]1O[C@@H](OC)[C@H](OC(=O)CCC)[C@@H](OC(=O)CCC)[C@H]1OC(=O)CCC [Compound 93, [(2R,3S,4S,5R,6R)-3,4,5-tris(butanoyloxy)-6-methoxyoxan-2-yl]methyl Butanoate]
Assay 2 (SIF) (% @ Remaining 4 hours) [1]: A (A: <25% of the tested compound remaining) | Assay 3 (% Remaining at 24 h) [2]: A (A: <25% of the tested compound remaining)

CCC(=O)O[C@@H]1[C@H](OC(=O)CC)C=C(C(=O)O)C[C@H]1OC(=O)CC [Compound 254, (3R,4S,5R)-3,4,5-tris(propanoyloxy)cyclohex-1-ene-1-carboxylic Acid]
Assay 3 (% Remaining at 24 h) [2]: B (B: 25-75% of the tested compound remaining)

CCCC(=O)Oc1ccc2c(c1)oc(=O)c1cc(OC(=O)CCC)c(OC(=O)CCC)cc12 [Compound 248, 8,9-bis(butanoyloxy)-6-oxo-6H-benzo[c]chromen-3-yl Butanoate]
Assay 3 (% Remaining at 24 h) [2]: A (A: <25% of the tested compound remaining)

CCC(=O)O[C@H]1[C@H](OC(=O)CC)[C@H](OC(=O)CCc2c[nH]c3ccccc23)O[C@@H](C)[C@H]1OC(=O)CC [Compound 155, (2S,3S,4R,5R,6S)-6-methyl-3,4,5-tris(propanoyloxy)oxan-2-yl 3-(1H-indol-3-yl)propanoate]
Assay 2 (SIF) (% @ Remaining 4 hours) [1]: C (C: >75% of the tested compound remaining) | Assay 3 (% Remaining at 24 h) [2]: A (A: <25% of the tested compound remaining)

CCCC(=O)OC[C@H]1O[C@@H](OC)[C@H](OC(=O)CCC)[C@@H](OC(=O)CCC)[C@@H]1OC(=O)CCC [Compound 91, [(2R,3R,4S,5R,6R)-3,4,5-tris(butanoyloxy)-6-methoxyoxan-2-yl]methyl Butanoate]
Assay 2 (SIF) (% @ Remaining 4 hours) [1]: A (A: <25% of the tested compound remaining) | Assay 3 (% Remaining at 24 h) [2]: A (A: <25% of the tested compound remaining)

C[C@@H]1O[C@@H](OC(=O)CCc2c[nH]c3ccccc23)[C@@H](OC(=O)CCc2c[nH]c3ccccc23)[C@H](OC(=O)CCc2c[nH]c3ccccc23)[C@@H]1OC(=O)CCc1c[nH]c2ccccc12 [Compound 97, (2S,3S,4R,5R,6S)-3,4,5-tris({[3-(1H-indol-3-yl)propanoyl]oxy})-6-methyloxan-2-yl 3-(1H-indol-3-yl)propanoate]
Assay 2 (SIF) (% @ Remaining 4 hours) [1]: A (A: <25% of the tested compound remaining) | Assay 3 (% Remaining at 24 h) [2]: A (A: <25% of the tested compound remaining)

O=C(Cc1c[nH]c2ccccc12)Oc1ccc(/C=C/c2cc(OC(=O)Cc3c[nH]c4ccccc34)cc(OC(=O)Cc3c[nH]c4ccccc34)c2)cc1 [Compound 260, 4-[(1E)-2-[3,5-bis({[2-(1H-indol-3-yl)acetyl]oxy})phenyl]ethenyl]phenyl 2-(1H-indol-3-yl)acetate]
Assay 3 (% Remaining at 24 h) [2]: A (A: <25% of the tested compound remaining)

O=C(Cc1c[nH]c2ccccc12)O[C@@H]1OC[C@H](OC(=O)Cc2c[nH]c3ccccc23)[C@H](OC(=O)Cc2c[nH]c3ccccc23)[C@H]1OC(=O)Cc1c[nH]c2ccccc12 [Compound 178, (2S,3R,4S,5S)-3,4,5-tris({[2-(1H-indol-3-yl)acetyl]oxy})oxan-2-yl 2-(1H-indol-3-yl)acetate]
Assay 3 (% Remaining at 24 h) [2]: A (A: <25% of the tested compound remaining)

[2H]C([2H])([2H])C([2H])([2H])CC(=O)O[C@@H]1[C@@H](OC(=O)CC([2H])([2H])C([2H])([2H])[2H])[C@H](Oc2ccc(N)cc2C(=O)O)OC[C@H]1OC(=O)CC([2H])([2H])C([2H])([2H])[2H] [Compound 230, 5-amino-2-{[(2S,3R,4S,5R)-3,4,5-tris[(3,3,4,4,4-^2H5)butanoyloxy]oxan-2-yl]oxy}benzoic Acid]
Assay 3 (% Remaining at 24 h) [2]: B (B: 25-75% of the tested compound remaining)

[2H]C([2H])([2H])C([2H])([2H])CC(=O)O[C@@H]1[C@@H](OC(=O)CC([2H])([2H])C([2H])([2H])[2H])[C@H](Oc2ccc(N)cc2C(=O)O)OC[C@H]1O [Compound 234, 5-amino-2-{[(2S,3R,4S,5R)-3,4-bis[(3,3,4,4,4-^2H5)butanoyloxy]-5-hydroxyoxan-2-yl]oxy}benzoic Acid]
Assay 3 (% Remaining at 24 h) [2]: B (B: 25-75% of the tested compound remaining)
